Measurements as given in patent US8426420B2, “Heterocyclic pyrazole-carboxamidesas P2Y12 antagonists” (Sanofi, priority 2007, dated 2013).

Legend:
human P2Y12 receptor = human P2Y12 receptor (Homo sapiens, UniProt Q9H244); assay: Human P2Y12 recombinant cell membrane binding assay with 33P 2MeS-ADP; details: competition against 33P 2MeS-ADP, membranes of CHO cells with recombinant human P2Y12 receptor
Method: The ability of the compounds of the formula Ito inhibit the P2Y12 receptor can be assessed by determining the concentration of the compound of the formula I that binds to the human P2Y12 Recombinant Cell Membrane Binding Assay with 33P 2MeS-ADP.
Human P2Y12 Recombinant Cell Membrane Binding Assay
The ability of a test compound to bind to the P2Y12 receptor was evaluated in a recombinant cell membrane binding assay. In this competitive binding assay, the test compound competed against a radiolabeled agonist for binding to the P2Y12 receptor, expressed on the cell membrane. Inhibition of binding of the labeled material was measured and correlated to the amount and potency of the test compound. This binding assay is a modification of the procedure described by Takasaki, J. et. al, Mol. Pharmacol., 2001, Vol. 60, pg. 432. A membrane preparation was prepared from Chinese Hamster Ovary (CHO) cells with recombinant expression of the human P2Y12 receptor according to standard procedures as a source of P2Y12.
To a 96-well microtiterplate the following were added: a) 24 μl of assay buffer (10 mM HEPES, 138 mM NaCl, […] KCl, 12 mM NaHCO3, 1 mM EDTA-Na, 0.1% BSA, pH 7.4) b) 1 μL compound in DMSO c) 50 μL P2Y12 CHO membrane (20 μg/ml) and after 15 min at RT d) 25 μL of 1.61 nM 33P 2MeS-ADP (Perkin Elmer NEN custom synthesis, specific activity ˜2100 Ci/mmol) made in assay buffer.
After 20 min incubation at RT samples were transferred to 96-well microtiter filterplates (Millipore HTS GF/B), pre-wetted for 20 min with 300 μL of stop buffer (10 mM HEPES, 138 mM NaCl pH 7.4) and then filtered through completely with a Millipore plate vacuum. Next, wells were washed four times with 400 μl/well of stop buffer on a plate vacuum. The plate was disassembled and allowed to air dry overnight with the filter side up over night. The filter plates were snapped into adapter plates and 0.1 mL of Microscint 20 Scintillation Fluid (Perkin Elmer #6013621) was added to each well. The top of the filterplate was sealed with plastic plate covers. The sealed filterplate were incubated 2 hours at RT. A Microbeta Scintillation Counter was used to measure counts.
Compounds were diluted as 10 mM DMSO stocks and tested in a four-point, five-fold dilution series run in triplicate beginning at 10 μM, final concentration. Data were analyzed using a four-parameter curve fit with a fixed minimum and maximum experimentally defined as the average positive and negative controls on each plate.

[1] = system: human platelet rich plasma; assay: Inhibition of human platelet aggregation, 96-well assay; format: cell-based
How it was run: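 ADP-induced aggregation read as 650 nm absorbance every minute for 20 min at 37 °C, with shaking between reads. PRP (~3×E8 platelets/ml, diluted with PPP, ACD-A blood from healthy volunteers) was exposed to compound for 5 min before adding a 40 μM ADP stock (15 μl into 150 μl).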

Sequence of human P2Y12 receptor (Q9H244 whole entry): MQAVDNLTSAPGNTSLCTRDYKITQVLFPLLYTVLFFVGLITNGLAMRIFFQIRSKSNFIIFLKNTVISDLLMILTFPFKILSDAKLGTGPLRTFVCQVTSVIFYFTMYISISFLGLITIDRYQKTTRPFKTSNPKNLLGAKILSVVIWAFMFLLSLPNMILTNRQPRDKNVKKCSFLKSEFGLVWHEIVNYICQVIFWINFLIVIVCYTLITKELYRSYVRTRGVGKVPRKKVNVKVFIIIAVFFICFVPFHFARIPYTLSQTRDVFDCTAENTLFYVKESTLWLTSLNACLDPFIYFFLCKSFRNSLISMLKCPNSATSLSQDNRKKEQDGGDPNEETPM

IC50 (human P2Y12 receptor)	IC50 ([1]; Homo sapiens, Platelet, 20 min)	Compound	IC50 ([1]; ADP-induced aggregation, human platelet rich plasma, 96-well plates, AUC of absorbance over 20 minutes)
19 nM	30 nM	CCOC(=O)N1CCN(C(=O)[C@H](CCC(=O)O)NC(=O)c2cc(OCC(=O)N3CCC[C@H]3C(=O)NC3CCC3)n(-c3ccccc3)n2)CC1 [Example 5]	–
146 nM	70 nM	CCOC(=O)N1CCN(C(=O)[C@H](CCC(=O)O)NC(=O)c2cc(OCC(=O)N3CCC[C@H]3C(=O)N3CCCCC3)n(-c3ccccc3)n2)CC1 [Example 18, 4-{(S)-4-Carboxy-2-[(5-{2-oxo-2-[(S)-2-(piperidine-1-carbonyl)-pyrrolidin-1-yl]-ethoxy}-1-phenyl-1H-pyrazole-3-carbonyl)-amino]-butyryl}-piperazine-1-carboxylic acid ethyl ester]	–
192 nM	710 nM	CCOC(=O)N1CCN(C(=O)[C@H](CCC(=O)O)NC(=O)c2cc(OCC(=O)N3CCC[C@H]3C(=O)NC3CC3)n(-c3cccc(F)c3)n2)CC1 [Example 71, 4-((S)-4-Carboxy-2-{[5-[2-((S)-2-cyclopropylcarbamoyl-pyrrolidin-1-yl)-2-oxo-ethoxy]-1-(3-fluoro-phenyl)-1H-pyrazole-3-carbonyl]-amino}-butyryl)-piperazine-1-carboxylic acid ethyl ester]	–
28 nM	170 nM	CCOC(=O)N1CCN(C(=O)[C@H](CCC(=O)O)NC(=O)c2cc(OCC(=O)N3CCC[C@H]3C(=O)NCC(F)F)n(-c3cccc(F)c3)n2)CC1 [Example 76, 4-((S)-4-Carboxy-2-{[5-[2-((S)-2-(2,2-difluoroethylcarbamoyl)-pyrrolidin-1-yl)-2-oxo-ethoxy]-1-(3-fluoro-phenyl)-1H-pyrazole-3-carbonyl]-amino}-butyryl)-piperazine-1-carboxylic acid ethyl ester]	–
36 nM	–	CCCCOC(=O)N1CCN(C(=O)[C@H](CC(F)(F)F)NC(=O)c2cc(OCC(=O)N3CCC[C@H]3C(=O)NC3CCC3)n(-c3ccccc3)n2)CC1 [Example 274, 4-[(S)-2-({5-[2-((S)-2-Cyclobutylcarbamoyl-pyrrolidin-1-yl)-2-oxo-ethoxy]-1-phenyl-1H-pyrazole-3-carbonyl}-amino)-4,4,4-trifluoro-butyryl]-piperazine-1-carboxylic acid butyl ester]	–

Second part, the compound before the results:

Compound	IC50 (human P2Y12 receptor)	IC50 ([1]; Homo sapiens, Platelet, 20 min)	IC50 ([1]; ADP-induced aggregation, human platelet rich plasma, 96-well plates, AUC of absorbance over 20 minutes)
CCOC(=O)N1CCN(C(=O)[C@H](CCC(=O)O)NC(=O)c2cc(OCC(=O)N3CCC[C@H]3C(=O)NC3CC3(F)F)n(-c3ccccc3)n2)CC1 (stereo partly drawn) [Example 21, 4-{(S)-4-Carboxy-2-[(5-{2-[(S)-2-(2,2-difluoro-cyclopropylcarbamoyl)-pyrrolidin-1-yl]-2-oxo-ethoxy}-1-phenyl-1H-pyrazole-3-carbonyl)-amino]-butyryl}-piperazine-1-carboxylic acid ethyl ester]	32 nM	62 nM	–
CCOC(=O)N1CCN(C(=O)[C@H](CCC(=O)O)NC(=O)c2cc(OCC(=O)N3CC[C@H]3C(=O)NC3CCC3)n(-c3ccccc3)n2)CC1 [Example 41, 4-[(S)-4-Carboxy-2-({5-[2-((S)-2-cyclobutylcarbamoyl-azetidin-1-yl)-2-oxo-ethoxy]-1-phenyl-1H-pyrazole-3-carbonyl}-amino)-butyryl]-piperazine-1-carboxylic acid ethyl ester]	109 nM	80 nM	–
CCOC(=O)N1CCN(C(=O)[C@H](CC(=O)O)NC(=O)c2cc(OCC(=O)N3CCC[C@H]3C(=O)NCC(F)(F)F)n(-c3ccccc3)n2)CC1 [Example 58, 4-{(S)-3-Carboxy-2-[(5-{2-[(S)-2-(2,2,2-trifluoro-ethylcarbamoyl)-pyrrolidin-1-yl]-2-oxo-ethoxy}-1-phenyl-1H-pyrazole-3-carbonyl)-amino]-propionyl}-piperazine-1-carboxylic acid ethyl ester]	96 nM	60 nM	–
CCOC(=O)N1CCN(C(=O)[C@H](CCC(=O)O)NC(=O)c2cc(OCC(=O)N3CCC[C@H]3C(=O)NCC3CC3)n(-c3cccc(F)c3)n2)CC1 [Example 74, 4-((S)-4-Carboxy-2-{[5-[2-((S)-2-cyclopropylmethylcarbamoyl-pyrrolidin-1-yl)-2-oxo-ethoxy]-1-(3-fluoro-phenyl)-1H-pyrazole-3-carbonyl]-amino}-butyryl)-piperazine-1-carboxylic acid ethyl ester]	182 nM	260 nM	–
CCOC(=O)N1CCN(C(=O)[C@H](CC(=O)O)NC(=O)c2cc(OCC(=O)N3CCC[C@H]3C(=O)NCC3CC3)n(-c3cccc(F)c3)n2)CC1 [Example 77, 4-((S)-3-Carboxy-2-{[5-[2-((S)-2-cyclopropylmethyl-carbamoyl-pyrrolidin-1-yl)-2-oxo-ethoxy]-1-(3-fluoro-phenyl)-1H-pyrazole-3-carbonyl]-amino}-propionyl)-piperazine-1-carboxylic acid ethyl ester]	28 nM	–	160 nM
CCOC(=O)N1CCN(C(=O)[C@H](CCC(=O)O)NC(=O)c2cc(OCC(=O)N3CCC[C@H]3C(=O)NC3CCC3)n(-c3ccc(F)c(F)c3)n2)CC1 [Example 83, 4-((S)-4-Carboxy-2-{[5-[2-((S)-2-cyclobutylcarbamoyl-pyrrolidin-1-yl)-2-oxo-ethoxy]-1-(3,4-difluoro-phenyl)-1H-pyrazole-3-carbonyl]-amino}-butyryl)-piperazine-1-carboxylic acid ethyl ester]	31 nM	120 nM	–
CCCCOC(=O)N1CCN(C(=O)[C@H](CCCOC(=O)C(C)C)NC(=O)c2cc(OCC(=O)N3CCC[C@H]3C(=O)NC3CCC3)n(-c3ccccc3)n2)CC1 [Example 212, 4-[(S)-2-({5-[2-((S)-2-Cyclobutylcarbamoyl-pyrrolidin-1-yl)-2-oxo-ethoxy]-1-phenyl-1H-pyrazole-3-carbonyl}-amino)-5-isobutyryloxy-pentanoyl]-piperazine-1-carboxylic acid butyl ester]	17 nM	–	–
CCCCOC(=O)N1CCN(C(=O)[C@H](CC2CCCCC2)NC(=O)c2cc(OCC(=O)N3CCC[C@H]3C(=O)NC3CCC3)n(-c3ccccc3)n2)CC1 [Example 225, 4-[(S)-2-({5-[2-((S)-2-Cyclobutylcarbamoyl-pyrrolidin-1-yl)-2-oxo-ethoxy]-1-phenyl-1H-pyrazole-3-carbonyl}-amino)-3-cyclohexyl-propionyl]-piperazine-1-carboxylic acid butyl ester]	136 nM	–	–
CCCCOC(=O)N1CCN(C(=O)[C@H](CC(C)C)NC(=O)c2cc(OCC(=O)N3CCC[C@H]3C(=O)NC3CCC3)n(-c3ccccc3)n2)CC1 [Example 226, 4-[(S)-2-({5-[2-((S)-2-Cyclobutylcarbamoyl-pyrrolidin-1-yl)-2-oxo-ethoxy]-1-phenyl-1H-pyrazole-3-carbonyl}-amino)-4-methyl-pentanoyl]-piperazine-1-carboxylic acid butyl ester]	59 nM	–	–
CCCCOC(=O)N1CCN(C(=O)[C@@H](NC(=O)c2cc(OCC(=O)N3CCC[C@H]3C(=O)NC3CCC3)n(-c3ccccc3)n2)[C@H](C)CC)CC1 [Example 229, 4-[(2S,3R)-2-({5-[2-((S)-2-Cyclobutylcarbamoyl-pyrrolidin-1-yl)-2-oxo-ethoxy]-1-phenyl-1H-pyrazole-3-carbonyl}-amino)-3-methyl-pentanoyl]-piperazine-1-carboxylic acid butyl ester]	22 nM	–	–
CCCCOC(=O)N1CCN(C(=O)[C@H](CC2CC2)NC(=O)c2cc(OCC(=O)N3CCC[C@H]3C(=O)NC3CCC3)n(-c3ccccc3)n2)CC1 [Example 234, 4-[(S)-2-({5-[2-((S)-2-Cyclobutylcarbamoyl-pyrrolidin-1-yl)-2-oxo-ethoxy]-1-phenyl-1H-pyrazole-3-carbonyl}-amino)-3-cyclopropyl-propionyl]-piperazine-1-carboxylic acid butyl ester]	85 nM	–	–
CCOC(=O)N1CCN(C(=O)[C@H](CCCCOC(C)=O)NC(=O)c2cc(OCC(=O)N3CCC[C@H]3C(=O)NC3CCC3)n(-c3ccccc3)n2)CC1 [Example 237, 4-[(S)-6-Acetoxy-2-({5-[2-((S)-2-cyclobutylcarbamoyl-pyrrolidin-1-yl)-2-oxo-ethoxy]-1-phenyl-1H-pyrazole-3-carbonyl}-amino)-hexanoyl]-piperazine-1-carboxylic acid ethyl ester]	30 nM	–	–
